Holding throughout (format): in vivo
The subject of assay [1] is Puccinia triticina. Briefly: Puccinia triticina test (wheat)/protective. The following applies: 192 h, 500 ppm active substance, protective, evaluation 8 days after inoculation, read-out: degree of effectiveness. Here is the method: (§1) • Solvent: 50 parts by weight of N,N-dimethylacetamide • Emulsifier: 1 part by weight of alkylaryl polyglycol ether (polyoxyethylene (16) tristearylphenyl ether)
(§2) To prepare a suitable active substance composition, 1 part by weight of active substance is mixed with the given amounts of solvent and emulsifier and the concentrate is diluted to the desired concentration using water.
For the testing of protective effectiveness, young plants are sprayed with the active substance composition in the application rate given. After the spray coating has been dried on, the plants are sprayed with a suspension of spores of Puccinia triticina. The plants remain in an incubation chamber at 20° C. and 100% relative humidity for 48 hours. The plants are placed in a greenhouse at a temperature of approximately 20° C. and a relative humidity of approximately 80%.
(§3) Evaluation is carried out 8 days after the inoculation. In this connection, 0% means a degree of effectiveness corresponding to that of the control, while a degree of effectiveness of 100% means that no infestation is observed.

For assay [2], the system named is Puccinia triticina. In words: Puccinia triticina test (wheat)/curative. Conditions: 192 h, 500 ppm active substance, curative, evaluation 8 days after inoculation, read-out: degree of effectiveness. Here is the method:
as §1, §2
For the testing of curative effectiveness, young plants are sprayed with a suspension of spores of Puccinia triticina. The plants remain in an incubation chamber at 20° C. and 100% relative humidity for 48 hours and are then sprayed with the active substance composition in the application rate given. The plants are placed in a greenhouse at a temperature of approximately 20° C. and a relative humidity of approximately 80%.
as §3

Another assay has as its system Sphaerotheca fuliginea. In words: Sphaerotheca test (cucumber)/protective. Conditions: Podosphaera fuliginea, 168 h, 500 ppm active substance, protective, evaluation 7 days after inoculation, read-out: degree of effectiveness. Here is the method: • Solvent: 49 parts by weight of N,N-dimethylformamide • Emulsifier: 1 part by weight of alkylaryl polyglycol ether (polyoxyethylene (16) tristearylphenyl ether) To prepare a suitable active substance composition, 1 part by weight of active substance is mixed with the given amounts of solvents and emulsifier and the concentrate is diluted to the desired concentration using water. For the testing of protective effectiveness, young cucumber plants are sprayed with the active substance composition in the application rate given. One day after treatment, the plants are inoculated with a suspension of spores of Sphaerotheca fuliginea. The plants are then placed in a greenhouse at 70% relative humidity and a temperature of 23° C. Evaluation is carried out 7 days after the inoculation. In this connection, 0% means a degree of effectiveness corresponding to that of the control, while a degree of effectiveness of 100% means that no infestation is observed.

The test system of the next assay is Alternaria solani. In words: Alternaria test (tomato)/protective. The following applies: 72 h, 100 ppm active substance, protective, evaluation 3 days after inoculation, read-out: degree of effectiveness. Here is the method:
• Solvents: 24.5 parts by weight of acetone • 24.5 parts by weight of dimethylacetamide • Emulsifier: 1 part by weight of alkylaryl polyglycol ether (polyoxyethylene (16) tristearylphenyl ether)
To prepare a suitable active substance composition, 1 part by weight of substance is mixed with the given amounts of solvents and emulsifier and the concentrate is diluted to the desired concentration using water.
For the testing of protective effectiveness, young plants are sprayed with the active substance composition in the application rate given. After the spray coating has been dried on, the plants are inoculated with an aqueous suspension of spores of Alternaria solani. The plants are then placed in an incubation chamber at approximately 20° C. and 100% relative humidity.
Evaluation is carried out 3 days after the inoculation. In this connection, 0% means a degree of effectiveness corresponding to that of the control, while a degree of effectiveness of 100% means that no infestation is observed.

In the case of `CCN(C)C=Nc1cc(C)c(Oc2nc([C@@H]3C[C@H]3c3ccccc3)ns2)cc1Cl` (relative stereo) [Compound 29, rel-N′-[2-chloro-5-methyl-4-({3-[(1R,2R)-2-phenylcyclopropyl]-1,2,4-thiadiazol-5-yl}oxy)phenyl]-N-ethyl-N-methylimidoformamide], the pest or weed control at 500 ppm with Puccinia triticina [1], with Puccinia triticina [2] and in the assay with Sphaerotheca fuliginea was not below 70% in each case.
As to `Cc1cc(N=CN(C)C(C)C)c(Cl)cc1Oc1nc([C@@H]2C[C@H]2c2ccccc2)ns1` (relative stereo) [Compound 31, rel-N′-[2-chloro-5-methyl-4-({3-[(1R,2R)-2-phenylcyclopropyl]-1,2,4-thiadiazol-5-yl}oxy)phenyl]-N-methyl-N-(propan-2-yl)imidoformamide], the pest or weed control at 500 ppm in the assay with Puccinia triticina [1], in the assay with Puccinia triticina [2] and with Sphaerotheca fuliginea was not below 70% throughout.
On to `Cc1cc(N=CN(C)C(C)C)c(Cl)cc1Oc1nc(C2(Cl)CC2)ns1` [Compound 4, N′-(2-chloro-4-{[3-(1-chlorocyclopropyl)-1,2,4-thiadiazol-5-yl]oxy}-5-methylphenyl)-N-methyl-N-propan-2-ylimidoformamide], for which the pest or weed control at 500 ppm in the assay with Puccinia triticina [1], in the assay on Puccinia triticina [2] and with Sphaerotheca fuliginea was not below 70% throughout.
`Cc1cc(/N=C/N2CCCCC2)c(Cl)cc1Oc1nc(C2(Cl)CC2)ns1` [Compound 5, 2-chloro-4-{[3-(1-chlorocyclopropyl)-1,2,4-thiadiazol-5-yl]oxy}-5-methyl-N-[(E)-piperidin-1-ylmethylidene]aniline]: the pest or weed control at 500 ppm in the assay with Puccinia triticina [1], with Puccinia triticina [2] and in the assay on Sphaerotheca fuliginea was not below 70% in each case.
In the case of `Cc1cc(/N=C/N2CCCCC2)c(Cl)cc1Oc1nc(C(C)c2ccc(Cl)cc2)ns1` (stereo not shown) [Compound 7, 2-chloro-4-({3-[1-(4-chlorophenyl)ethyl]-1,2,4-thiadiazol-5-yl}oxy)-5-methyl-N-[(E)-piperidin-1-ylmethylidene]aniline], in the assay with Sphaerotheca fuliginea, the pest or weed control at 500 ppm is not below 70%.
As for `CCN(C)/C=N/c1cc(C)c(Oc2nc(CCc3ccc(Cl)cc3)ns2)cc1Cl` [Compound 9, N′-[2-chloro-4-({3-[2-(4-chlorophenyl)ethyl]-1,2,4-thiadiazol-5-yl}oxy)-5-methylphenyl]-N-ethyl-N-methylimidoformamide], the pest or weed control at 500 ppm in the assay with Puccinia triticina [1], in the assay on Puccinia triticina [2] and with Sphaerotheca fuliginea was not below 70% in each case.
Take `Cc1cc(/N=C\N2CCCCC2)c(Cl)cc1Oc1nc(C(C)(C)c2ccc(Cl)cc2)ns1` [Compound 12, 2-chloro-4-({3-[2-(4-chlorophenyl)propan-2-yl]-1,2,4-thiadiazol-5-yl}oxy)-5-methyl-N-[(Z)-piperidin-1-ylmethylidene]aniline]: the pest or weed control at 100 ppm with Alternaria solani is not below 70%. The pest or weed control at 500 ppm in the assay with Sphaerotheca fuliginea is not below 70%.
For `Cc1cc(/N=C\N2CCCCC2)c(Cl)cc1Oc1nc(/C=C/c2ccc(F)cc2)ns1` [Compound 16, 2-chloro-4-({3-[(E)-2-(4-fluorophenyl)ethenyl]-1,2,4-thiadiazol-5-yl}oxy)-5-methyl-N-[(Z)-piperidin-1-ylmethylidene]aniline], in the assay with Sphaerotheca fuliginea, the pest or weed control at 500 ppm is not below 70%.
Take `CCN(C)/C=N/c1cc(C)c(Oc2nc(CCl)ns2)cc1Cl` [Compound 19, N′-(2-chloro-4-{[3-(chloromethyl)-1,2,4-thiadiazol-5-yl]oxy}-5-methylphenyl)-N-ethyl-N-methylimidoformamide]: the pest or weed control at 500 ppm in the assay with Puccinia triticina [2] is not below 70%.
Consider `Cc1cc(N=CN(C)C(C)C)c(Cl)cc1Oc1nc(C2(c3ccc(Cl)cc3)CC2)ns1` [Compound 20, N′-[2-chloro-4-({3-[1-(4-chlorophenyl)cyclopropyl]-1,2,4-thiadiazol-5-yl}oxy)-5-methylphenyl]-N-methyl-N-(propan-2-yl)imidoformamide], for which the pest or weed control at 500 ppm in the assay with Puccinia triticina [1], with Puccinia triticina [2] and with Sphaerotheca fuliginea was not below 70% each time.
With `Cc1cc(/N=C\N2CCCCC2)c(Cl)cc1Oc1nc(C2(c3ccc(Cl)cc3)CC2)ns1` [Compound 21, 2-chloro-4-({3-[1-(4-chlorophenyl)cyclopropyl]-1,2,4-thiadiazol-5-yl}oxy)-5-methyl-N-[(Z)-piperidin-1-ylmethylidene]aniline], in the assay on Sphaerotheca fuliginea, the pest or weed control at 500 ppm is not below 70%.
Same read-out and setting: under `CCN(C)/C=N/c1cc(C)c(Oc2nc(COc3ccc(Cl)cc3)ns2)cc1Cl` [Compound 22, N′-[2-chloro-4-({3-[(4-chlorophenoxy)methyl]-1,2,4-thiadiazol-5-yl}oxy)-5-methylphenyl]-N-ethyl-N-methylimidoformamide] stands not below 70%.
For the compound `C=CCN(C)C=Nc1cc(C)c(Oc2nc(C(C)(C)C)ns2)cc1Cl` [Compound 25, N′-{4-[(3-(tert-butyl)-1,2,4-thiadiazol-5-yl)oxy]-2-chloro-5-methylphenyl}-N-methyl-N-(prop-2-en-1-yl)imidoformamide], the pest or weed control at 500 ppm with Puccinia triticina [1], in the assay on Puccinia triticina [2] and in the assay with Sphaerotheca fuliginea was not below 70% in each case.
As for `Cc1cc(N=CN(C)CC2CC2)c(Cl)cc1Oc1nc(C(C)(C)C)ns1` [Compound 26, N′-{4-[(3-(tert-butyl)-1,2,4-thiadiazol-5-yl)oxy]-2-chloro-5-methylphenyl}-N-(cyclopropylmethyl)-N-methylimidoformamide], the pest or weed control at 500 ppm in the assay with Puccinia triticina [1], in the assay on Puccinia triticina [2] and in the assay on Sphaerotheca fuliginea was not below 70% each time.
With `CCN(C)/C=N/c1cc(C)c(Oc2nc(C(C)(C)Cc3ccccc3)ns2)cc1Cl` [Compound 28, N′-(2-chloro-5-methyl-4-{[3-(2-methyl-1-phenylpropan-2-yl)-1,2,4-thiadiazol-5-yl]oxy}phenyl)-N-ethyl-N-methylimidoformamide], the pest or weed control at 500 ppm in the assay on Puccinia triticina [1] and in the assay with Sphaerotheca fuliginea was not below 70% throughout. For the same compound, the pest or weed control at 100 ppm in the assay with Alternaria solani is not below 70%.
As to `CCN(C)C=Nc1cc(C)c(Oc2nc(Cc3cccc(C(F)(F)F)c3)ns2)cc1Cl` [Compound 34, N′-[2-chloro-5-methyl-4-({3-[3-(trifluoromethyl)benzyl]-1,2,4-thiadiazol-5-yl}oxy)phenyl]-N-ethyl-N-methylimidoformamide], the pest or weed control at 500 ppm in the assay with Puccinia triticina [1], in the assay on Puccinia triticina [2] and in the assay with Sphaerotheca fuliginea was not below 70% in each case.
With `CCN(C)/C=N/c1cc(C)c(Oc2nc(COc3cccc(Cl)c3)ns2)cc1Cl` [Compound 35, N′-[2-chloro-4-({3-[(3-chlorophenoxy)methyl]-1,2,4-thiadiazol-5-yl}oxy)-5-methylphenyl]-N-ethyl-N-methylimidoformamide], the pest or weed control at 500 ppm with Puccinia triticina [1], with Puccinia triticina [2] and in the assay with Sphaerotheca fuliginea was not below 70% in each case.
As for `CCN(C)/C=N/c1cc(C)c(Oc2nc(COc3ccccc3Cl)ns2)cc1Cl` [Compound 36, N′-[2-chloro-4-({3-[(2-chlorophenoxy)methyl]-1,2,4-thiadiazol-5-yl}oxy)-5-methylphenyl]-N-ethyl-N-methylimidoformamide], the pest or weed control at 500 ppm in the assay on Puccinia triticina [2] and in the assay on Sphaerotheca fuliginea was not below 70% each time.
As for `CCN(C)/C=N/c1cc(C)c(Oc2nc(COc3ccccc3)ns2)cc1Cl` [Compound 37, N′-(2-chloro-5-methyl-4-{[3-(phenoxymethyl)-1,2,4-thiadiazol-5-yl]oxy}phenyl)-N-ethyl-N-methylimidoformamide], in the assay on Sphaerotheca fuliginea, the pest or weed control at 500 ppm was not below 70%.
